According to patent US20230323373A1, “SPRAYABLE CELL-PENETRATING PEPTIDES FOR SUBSTANCE DELIVERY IN PLANTS” (BASF Plant Science Company GmbH, priority 2020, published 2023):
Square brackets hold non-standard residues; d marks the D form. Ends that are not written are not given here.

Columns and labels:
soybean leaves = experiment: Translocation of sprayed TAMRA-CPPs into soybean leaves (fluorescence imaging); format: in vivo, Glycine max; conditions: for cell penetrating efficiency: soybean leaves, in general
Method: Seeds of soybean (Glycine max) cultivars Enrei, William-82, and Peking, were germinated between germination papers that has been moistened with tap water. Then the seeds with papers were placed in a plastic bag and incubated in a growth chamber under 18 hours light/6 hours dark at 26° C. for three days. One and a quarter tea spoon of Multicoat 4 was mixed with 2 L of autoclaved sand, which was then moistened with tap water. Three days old soybean seedlings were then transplanted into containers filled with moist sand mix and incubated in the same growth chamber. Leaves from 5 weeks old plants were used for experiments.
Soybean leaves are different in both architecture and leaf chemical components. We further examined the translocation efficiency of highly efficient native CPP sequences in soybean leaves. Leaves from 5 weeks old plants were used for the experiment. Solutions containing 1.0 mg/mL of natural TAMRA-CPP; TAMRA-BP100, TAMRA-KH9, TAMRA-R9, and TAMRA-D-R9 were sprayed on soybean leaves of 3 different cultivars (Enrei, Peking, and William-82) and incubated for 30 min, 90 min, and 150 min (FIG. 3A). The fluorescence imaging and image analysis were conducted to determine the translocation efficiency of these CPPs to plant leaves. […] Different soybean cultivars responded differently to the translocation of CPPs to plant cells.
We tried to determine the efficiency of artificial CPPs containing Aib to soybean leaves using spraying. KAibA, KAibK, and KAibG were synthesized and labelled with TAMRA as described in Example 1. The solutions containing 1 mg/mL of these artificial TAMRA-CPPs were sprayed to fully expanded leaves of 5-weeks old soybean cultivar Enrei and the fluorescence imaging was carried out at 30 min, 90 min, and 150 min after spraying. […] However, the average fluorescent intensity in TAMRA-KAibA-treated soybean leaves was lower than that previously achieved by TAMRA-D-R9 (FIG. 3B and C).

Arabidopsis leaf = experiment: Translocation of sprayed TAMRA-CPPs into Arabidopsis leaf cells (CLSM fluorescence); format: in vivo, Arabidopsis thaliana; conditions: for cell penetrating efficiency: epidermal cells, TAMRA-labelled CPP 1 mg/L in water, compared with KH9 and R9
From the text: Cell-penetrating peptides (CPPs), also called protein transduction domains, are short peptides that facilitate the transport of cargo molecules through membranes to gain access to the cells. In many cases, CPPs are coupled to cargo molecules through covalent conjugation, forming CPP-cargo complexes. To date, DNA, RNA, nanomaterials and proteins such as antibodies were reported as cargo molecules. Most studies of the complex of CPPs and protein have contributed to the applications in mammalian cells, whereas only very limited studies have focused on plant cells. […] The plant cells are mainly containing cellulose, hemicellulose and pectin. […] BP100 (KKLFKKILKYL—SEQ ID NO: 7) is an amphiphilic peptide and has CPP function. KH9 (KHKHKHKHKHKHKHKHKH—SEQ ID NO: 10), R9 (RRRRRRRRR SEQ ID NO: 8), and D-R9 (rrrrrrrrr, D-form of R9 - SEQ ID NO: 9) are peptides containing both CPP and cationic biomolecule binding functions. BP100(KH)9 ([…]—SEQ ID NO: 11) and BP100CH7 ([…]—SEQ ID NO: 12) are fusion peptides containing CPP and cationic sequences which are designed as stimulus-response peptides and could release the cargo molecules (peptides, protein, RNA, DNA) into the cytoplasm. KAibA(KH)9, K-alpha-aminoisobutyric acid (AibA)-AKHKHKHKHKHKHKHKHKH, and KAibA(D-R9), K-alpha-aminoisobutyric acid (AibA)-Arrrrrrrrr are synthetic peptides and containing both CPP and cationic biomolecule binding functions. KAibA (U.S. Ser. No. 16/832,749) was chemoenzymatically synthesized using the polymerization reaction (ACS Biomater. Sci. Eng. 2020, 6, 6, 3287-3298). TAMRA-CPPs are CPPs that labeled by fluorescent molecule 5-carboxytetramethylrhodamine (TAMRA) at the C-terminal end and were used for optimization of various conditions. For the labelling of CPP with TAMRA, the amino acids in Boc-CPPs were deprotected using tri-fluoroacetic acid (TFA). A solution of tetramethylrhodamine-5-isothiocyanate in dimethyl sulfoxide (DMSO) was added to CPP solutions and kept stirring at 25° C. for 14 h. The solution was centrifuged at maximum speed at 4° C. for 60 minutes and the precipitate was washed with Milli-Q water. After lyophilizing, a pink solid was obtained. Dried precipitate of TAM RA-CPP was re-suspended with Milli-q and the TAMRA-CPP solution was kept at 1.0 mg/mL concentration in −80° C. Plasmid DNA that contains expression cassette of reporter gene such as GUS (SEQ ID NO: 1), GFP (SEQ ID NO: 2), DsRed (SEQ ID NO: 3), and Renilla luciferase (Rluc—SEQ ID NO: 4) was used to detect successful delivery into plant cells. […]
Each TAMRA-CPP was adjusted as concentration at 1 mg/L in water. […] Leaf surface was washed three times with water after 30, 90 and 150 min post spraying, and the intensity of fluorescence was measured by CLSM imaging analysis (FIG. 2A). […]

| Substance | cell penetrating effect (soybean leaves; cultivar Peking) | cell penetrating efficiency (soybean leaves) | depth of penetration and persistence in tissue (Arabidopsis leaf; Arabidopsis leaf, summary) | cell penetrating efficiency (Arabidopsis leaf) | penetrating efficiency (Arabidopsis leaf; mesophyll cells) |
| --- | --- | --- | --- | --- | --- |
| rrrrrrrrr ([dR][dR][dR][dR][dR][dR][dR][dR][dR]) [D-R9] | most efficient cell penetrating effect | higher cell penetrating efficiency | able to penetrate deep inside of the tissue and stay longer without degradation | higher cell penetrating efficiency | highest penetrating efficiency |
| KKLFKKILKYL (BP100) | – | higher cell penetrating efficiency | – | higher cell penetrating efficiency | – |
